Holding throughout (assay): inhibition of tumour cell growth, NCI panel, 48 h
Assay [1] has as its system EKVX NSCLC.
In assay [2] the test system is HT29 colon.
In assay [3] the test system is IGROV1 ovarian.
Assay [4] has as its system OVCAR-8 ovarian.
In assay [5] the test system is MOLT-4 leukemia.
In assay [6] the test system is K-562 leukemia.
Assay [7] relates to HCC-2998 colon.
In assay [8] the test system is UACC-257 melanoma.
Assay [9] concerns SR leukemia.
Assay [10] concerns HOP-92 NSCLC.

SMILES strings stand for the structures.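 Where inhibition never reached the appropriate level, the endpoint shown equals the highest concentration tested. Otherwise, values were interpolated linearly from a five-concentration, 48-hour dose response in 96-well plates. GI50 marks 50% less growth. At the TGI there is no net growth.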

Consider `c1ccc2[nH]c3[nH]c4[nH]c5ccccc5[nH]c4[nH]c3[nH]c2c1`, for which the TGI in [1], in [2], in assay [3], in [4], in assay [5] and in assay [6] was over 100 µM each time. For the same molecule, the TGI in assay [7], in assay [8] and in assay [9] was over 100 µM throughout.

Take `COc1cc(C)cc2c1C(=O)C(Br)=CC2=O`: the TGI in assay [1] is 33.4 µM; in [2] it was 35 µM; in assay [3], 31.7 µM; in assay [4], 15.2 µM; in assay [5], 5.19 µM; in [7] it was 35 µM. Moreover, the TGI in assay [8] was 26.7 µM; in [10] it was 5.41 µM.

For the molecule `COC(=O)C(/C(=N/N)C(=O)Nc1cc(Cl)c(Cl)cc1Cl)c1nc2ccc(Cl)cc2[nH]c1=O` (stereo not given), the TGI in [1], in assay [2], in assay [3], in assay [4], in assay [6] and in assay [8] was over 100 µM in each case. The TGI in assay [9] and in assay [10] was over 100 µM in each case.

On to `COc1ccc2c(c1)N(C(C)=O)CN1C(=O)CCC21` (stereo not given), for which the TGI in assay [1], in assay [2], in [3], in assay [4], in assay [5] and in [6] was over 100 µM in each case. In addition, the TGI in assay [7], in assay [8] and in [10] was over 100 µM throughout.

On to `COc1ccc(Nc2nc(N)c(C(=O)c3ccc(OC)cc3)s2)cc1`, for which the TGI was over 89.1 µM in assay [1]; over 48.5 µM in assay [2]; 32 µM in assay [3]; over 74.5 µM in assay [4]; over 35.8 µM in [6]; over 29.7 µM in assay [7]. Also, the TGI in assay [8] is over 100 µM; in assay [10], over 86.5 µM.

As to `CN(C)c1ccc(/C=C2\N=C(N/N=C/c3ccccc3)NC2=O)cc1`, the TGI was over 100 µM in assay [1]; over 100 µM in assay [2]; over 100 µM in assay [3]; 72.8 µM in assay [4]; over 100 µM in assay [5]; over 100 µM in [7]. In addition, the TGI is over 100 µM in assay [8] and 79.1 µM in [10].

In the case of `O=C(O)c1cc(-c2ccccc2O)nc2ccccc12`, the TGI in assay [1], in [2], in assay [3], in assay [4], in [5] and in assay [6] was over 100 µM in each case. Also, the TGI in [7] and in assay [8] was over 100 µM each time.

Take `CC1=CC2(O)OC3(CC2=C(C)C)C(C)CCC13` (stereo not given): the TGI in assay [1], in assay [2], in assay [3], in assay [4], in assay [5] and in assay [6] was over 100 µM throughout. Besides, the TGI in assay [8] and in [10] was over 100 µM in each case.

Consider `CCOC(=O)c1c2c(c(O)c3ccccc3c(O)n(-c3ccc(C)cc3)c1C)C(=O)C=CC2=O`, for which the TGI was 85.5 µM in [1]; 41.1 µM in assay [2]; over 100 µM in assay [3]; 41.3 µM in assay [4]; 29.4 µM in assay [5]; 47.2 µM in [6]. Also, the figures for the TGI in assay [7], in [8] and in assay [10] were 36.9 µM, 29.3 µM and 56.9 µM, respectively.

For the molecule `Cn1cnc2c(OCC3CCCCC3)nc(N)nc21`, the TGI in assay [1], in assay [2], in [3], in assay [4], in assay [5] and in assay [6] was over 100 µM throughout. For the same molecule, the TGI in assay [7], in [8] and in assay [10] was over 100 µM throughout.

For the molecule `CC1(C)OC(=O)C(C)(C)OC1=O`, the TGI in assay [1], in assay [2], in assay [3], in assay [4], in assay [5] and in assay [6] was over 100 µM throughout. For the same molecule, the TGI in [8], in [9] and in assay [10] was over 100 µM in each case.

As for `O=C1/C(=C/c2ccc(Cl)cc2)NC(=S)N1CN1CCOCC1`, the TGI in assay [1], in assay [2], in assay [3], in assay [4], in [5] and in [6] was over 100 µM in each case. Further, the TGI in assay [8] and in [10] was over 100 µM in each case.

Regarding `COc1cc2c(cc1OC)C1C(O)C(OC)C=C3CC[N+](C)(C2)C31` (stereo not given), the TGI in [1], in [2], in assay [3], in assay [4], in assay [5] and in [7] was over 100 µM each time. Moreover, the TGI in assay [8] and in assay [10] was over 100 µM in each case.

On to `CCOc1ccc(N/C(=C(/C(Cl)=C(/Cl)NCCO)[N+](=O)[O-])n2nnc3ccccc32)cc1`, for which the TGI in assay [1] is over 100 µM; in assay [2], 85.3 µM; in [4], 36.7 µM; in assay [5] it was over 100 µM; in assay [6], over 100 µM; in [7], over 100 µM. Further, the TGI in assay [8] was over 100 µM.

Take `CC1(C)[C@@H]2C[C@H]1C(Cc1ccc(C[C@H]3c4cc(-c5ccccn5)ncc4[C@H]4C[C@@H]3C4(C)C)cc1)c1cc(-c3ccccn3)ncc12` (stereo not given in full): the TGI in assay [1] was 15 µM; in assay [2], over 100 µM; in [3], over 100 µM; in assay [4], 15.8 µM; in assay [6], over 100 µM; in assay [7] it was 88.2 µM. Besides, the values for the TGI in assay [8] and in [9] were over 100 µM and 5.02 µM, respectively.

For `CCOC(=O)c1nc2ccc(Cl)cc2c2c1CCO2`, the TGI in assay [1], in assay [2], in [3], in [4], in [5] and in assay [6] was over 100 µM throughout. Besides, the TGI in assay [7] and in assay [8] was over 100 µM throughout.

Consider `CO/C(=N\N=C\c1ccc(OC)cc1OC)c1ccncc1`, for which the TGI in [3], in assay [4], in [5], in assay [6], in assay [7] and in assay [9] was over 10 µM throughout.

`NC12CC3CC(C1)CC(Cl)(C3)C2`: the TGI in assay [1], in assay [2], in assay [3], in assay [4], in [5] and in assay [6] was over 100 µM in each case. Moreover, the TGI in assay [7], in assay [8] and in [10] was over 100 µM throughout.

With `CCOC(OCC)c1ccc(/C=C/c2cc(OC)c(OC)c(OC)c2)cc1`, the TGI in [1] was over 100 µM; in [2], 33.6 µM; in assay [3], over 100 µM; in assay [4], 76.3 µM; in [6] it was 39.8 µM; in assay [8], 51.2 µM. The TGI in assay [10] worked out at 64.7 µM.

With `CCOC(=O)c1cc(C2CCN(CC(C)CC)C2=S)c(C(=O)/C=C(/C)N)[nH]1` (stereo not given), the TGI in assay [1], in assay [2], in [3], in assay [4], in assay [5] and in assay [6] was over 50 µM each time. The TGI in assay [8] and in assay [9] was over 50 µM throughout.

For the molecule `NC1=CC(C(=O)c2ccncc2)c2nc3ccccc3nc21` (stereo not given), the TGI in [1], in [2], in [3], in [4], in [5] and in assay [7] was over 100 µM in each case. The TGI in assay [8] and in assay [10] was over 100 µM each time.

In the case of `CO[C@@](c1ccccc1)(c1nc(C#N)c(N)o1)C(F)(F)F`, the TGI in [1], in assay [3], in [4], in assay [5], in assay [6] and in assay [7] was over 100 µM throughout. The TGI in assay [8] and in [10] was over 100 µM in each case.

`COc1ccc(-n2c3c(c4cc(O)ccc42)C(=O)c2ccccc2C3=O)cc1`: the TGI in [1] is 43 µM; in assay [2] it was 18.6 µM; in assay [3], 30.8 µM; in assay [4], 13.6 µM; in [5] it was over 100 µM; in assay [6], over 100 µM. Besides, the values for the TGI in assay [8], in assay [9] and in assay [10] were over 100 µM, 56.9 µM and 47.5 µM, respectively.

Turning to `O=C1Nc2ccccc2[C@]12C[C@H]2c1ccccn1`, the TGI in assay [1], in assay [3], in assay [5], in [6], in [7] and in [8] was over 100 µM throughout. In addition, the TGI in assay [10] is over 100 µM.

As for `COc1ccc(C2SC(N)=Nc3c2c(C)nn3C(=O)c2ccc(Cl)cc2)cc1` (stereo not given), the TGI in assay [1], in [2], in [3], in assay [4], in assay [5] and in assay [6] was over 10 µM throughout. Besides, the TGI in assay [7], in assay [8] and in [10] was over 10 µM in each case.

On to `COc1ccc(/C=C2\N=C(c3ccccc3)N(Nc3nnc(NN4C(=O)/C(=C/c5ccc(OC)cc5)N=C4c4ccccc4)c4ccccc34)C2=O)cc1`, for which the TGI in assay [1], in assay [2], in [3], in [4], in assay [5] and in [6] was over 100 µM throughout. Besides, the TGI is over 100 µM in [8], 90.5 µM in [9] and over 100 µM in [10].

`CCCC(=O)N/S(=N/S(=O)(=O)c1ccc(Cl)cc1)C(Cl)(Cl)Cl` (stereo not given): the TGI in assay [1], in assay [2], in [3], in assay [4], in [5] and in assay [6] was over 100 µM each time. Besides, the TGI in [7] and in assay [9] was over 100 µM each time.

For `Cc1[nH]n(-c2nc3c(c(=O)[nH]2)CCC3)c(=O)c1CCO`, the TGI in assay [1], in assay [2], in assay [3], in assay [4], in assay [5] and in assay [6] was over 100 µM in each case. In addition, the TGI in assay [7] and in [8] was over 100 µM in each case.

In the case of `CCOC(=O)c1nnsc1NC(=O)Nc1ccc(Cl)cc1`, the TGI in assay [1] is over 100 µM; in assay [2] it was over 100 µM; in [3], over 100 µM; in assay [4], 41.2 µM; in assay [5] it was over 100 µM; in [6], over 100 µM. In addition, the TGI in [7] and in assay [8] was over 100 µM throughout.

In the case of `Cc1cn(CC2=NCC(C)(C)CN2)c(=O)[nH]c1=O`, the TGI in assay [1], in assay [2], in assay [3], in [4], in assay [7] and in [8] was over 100 µM throughout. In [10], the TGI is over 100 µM.

Take `C[C@@H]1CC[C@H]2C(COC/C=C/COCC3=C(C(F)(F)F)O[C@@H]4O[C@@]5(C)CC[C@H]6[C@H](C)CC[C@@H]3[C@@]46OO5)=C(C(F)(F)F)O[C@@H]3O[C@@]4(C)CC[C@@H]1[C@]32OO4`: the GI50 was 0.072 µM in assay [1]; 0.0169 µM in assay [2]; 1.27 µM in assay [3]; under 0.0206 µM in assay [4]; under 0.01 µM in assay [5]; under 0.0116 µM in assay [6]. For the same molecule, the figures for the GI50 in assay [7], in assay [8] and in [10] were 0.472 µM, 0.0538 µM and under 0.032 µM, respectively. Also, the TGI in [1] was over 100 µM; in [2], over 100 µM; in [3] it was 98.2 µM; in assay [4], over 32.6 µM; in assay [5] it was 40.6 µM; in assay [6], over 47 µM. The figures for the TGI in [7] and in assay [8] were over 100 µM and 11.8 µM, respectively.
